Measured values taken from publication PMC6689975, “Novel Cell Wall Antifungals Reveal a Special Synergistic Activity in pbr1 Mutants Resistant to the Glucan Synthesis Antifungals Papulacandins and Echinocandins” (Frontiers in Microbiology, 2019).
Where two headings read alike, the source gives them in different places.

Tests used:
Assay in all cases: microbe, parasite or virus in culture
C. albicans wild-type [1] = tested on: C. albicans wild-type; design: species or system whole yeast cells; macro tube broth dilution MIC in YEPD at 30 C, visual clearness of medium; settings: Candida albicans, 48 h, read-out: MIC
Procedure: (§1) Standard YEPD (Yeast Extract, Peptone, Dextrose) ([Sherman, 1990]), YEPD+S (YEPD with 1.2M sorbitol), YES (Yeast Extract, Dextrose and Supplements of Adenine, Histidine, Leucine, Uracil and Lysine) ([Alfa et al., 1993]) and YES+S (YES with 1.2 M sorbitol) ([Ribas et al., 1991]; [Ishiguro et al., 1997]), media were used for determination of MIC values of the tested compounds. A stock solution of 10 mg/ml of each tested compounds was prepared in DMSO and serial dilutions in DMSO were prepared. The final concentration of DMSO was 2% in the YEPD medium. […] The serial dilutions of compounds were dispensed into test tubes with 1 ml of YEPD or YEPD+S to make final concentrations of 200, 100, 50, 25, 12.5, 6.26, 3.125, 1.6, 0.8 and 0.4 μg/ml. The tested yeast strains were previously grown in YEPD, YEPD+S, YES or YES+S agar plates at 30°C for 48 h. For inoculation of YEPD or YEPD+S macro test tubes a suspension of tested fungus was produced with 10^5 cfu/ml (cfu - colony forming unit). 10 μl of suspension was used for inoculation of each tube. After 48 h incubation at 30°C the tubes were checked. The MIC value is the lowest concentration of the tested compound that could inhibit the fungal growth and the medium remained clear. From each tube 10 μl culture was plated on YEPD agar medium to check the contamination. The MIC tests were carried out in three parallels. The screening of the first generation of isochromanones was carried out in YEPD and YEPD+S media (1E-16E). The fungal strains analyzed are: C. albicans wild-type ATCC 26555, SC5314 and ATCC 90028, S. cerevisiae wild-type CVX12-3A and pbr1-1 mutant, and S. pombe wild-type (972h^–), pbr1-8 mutant and pbr1-6 mutant. The bold numbers in Tables 4–6 indicate the more efficient compounds. […] The weak or moderate efficacy against the C. albicans wild-type strains was observed by some substances (3E, 4Z, 5Z, 10E, 15, and 16E). The efficiency toward the S. pombe pbr1-6 mutant strain was the highest inhibitory activity, except 7E, 11E, 12 and 14E. […] As regards the other S. pombe pbr1-8 mutant strain, the antifungal activity of the tested compounds was slightly lower, but the substances with the best activity are partly identical to the best compounds mentioned with pbr1-6, (i.e., 1E, 3E, 4Z, 5Z).

[2] = tested on: T1, S. cerevisiae wild-type CVX12-3A; design: species or system whole yeast cells; macro tube broth dilution MIC in YEPD at 30 C, visual clearness of medium; settings: Saccharomyces cerevisiae, 48 h, read-out: MIC
T1 construct: CVX12-3A
Procedure: as §1

[3] = tested on: T2, S. pombe wild-type 972 h-; design: species or system whole yeast cells; macro tube broth dilution MIC in YEPD at 30 C, visual clearness of medium; settings: Schizosaccharomyces pombe, 48 h, read-out: MIC
T2 construct: 972 h-
Procedure: as §1

C. albicans wild-type [4] = tested on: C. albicans wild-type; design: species or system whole yeast cells; macro tube broth dilution MIC in YEPD at 30 C, visual clearness of medium; settings: Candida albicans, 48 h, read-out: MIC; remark: listed apart in the source
Procedure: as §1

C. albicans wild-type [5] = tested on: C. albicans wild-type; design: species or system whole yeast cells; macro tube broth dilution MIC in YEPD at 30 C, visual clearness of medium; settings: Candida albicans, 48 h, read-out: MIC; remark: listed apart in the source
Procedure: as §1

C. albicans wild-type [6] = tested on: C. albicans wild-type; design: species or system whole yeast cells; micro-culture broth dilution MIC in YES at 30 C, turbidity, complete growth inhibition; settings: Candida albicans
Procedure: (§2) Standard YEPD (Yeast Extract, Peptone, Dextrose) ([Sherman, 1990]), YEPD+S (YEPD with 1.2M sorbitol), YES (Yeast Extract, Dextrose and Supplements of Adenine, Histidine, Leucine, Uracil and Lysine) ([Alfa et al., 1993]) and YES+S (YES with 1.2 M sorbitol) ([Ribas et al., 1991]; [Ishiguro et al., 1997]), media were used for determination of MIC values of the tested compounds. A stock solution of 10 mg/ml of each tested compounds was prepared in DMSO and serial dilutions in DMSO were prepared. The final concentration of DMSO was 2% in the YEPD medium. […] The serial dilutions of compounds were dispensed into test tubes with 1 ml of YEPD or YEPD+S to make final concentrations of 200, 100, 50, 25, 12.5, 6.26, 3.125, 1.6, 0.8 and 0.4 μg/ml. The tested yeast strains were previously grown in YEPD, YEPD+S, YES or YES+S agar plates at 30°C for 48 h. Micro-culture assays of large numbers of samples were analyzed as described) ([Martins et al., 2011]). Essentially early log-phase cells were grown in YEPD, YEPD+S, YES or YES+S (1.2 M sorbitol) medium at 30°C, and diluted to cell density of 4 X 10^6 cells/ml in YEPD, YEPD+S, YES or YES+S medium and aliquots of 100 μl were dispensed into each small test tube (3 ml test tube size). Then, another 100 μl of YEPD, YEPD+S, YES or YES+S with the corresponding dilution of each compound at 2X concentration (4% DMSO) was added. The final volume was 200 μl, with the cells diluted to of 2 X 10^6 cells/ml and each compound diluted to 1X final concentration, containing increasing concentrations of antifungal (0, 1, 2, 5, 10, 20, 50, 100 and 200 μg/ml) or an equivalent volume of solvent (2% DMSO). The cells were grown at 30°C in an orbital roller and turbidity was analyzed after 24 and 48 h of incubation. The MIC was determined as the minimal concentration of tested compound that produced complete cell growth inhibition and kept the medium clear. The MIC values were calculated from at least three independent experiments. Next, the first generation of isochromanones (1E-16E) was also screened in YES medium (Table 5) and exerted a weaker antifungal potency than in YEPD medium and also than the second family of isochromanones in YES medium (17E-30E) (Table 6). The strains are partly different from the previously mentioned ones (Tables 5, 6) analyzing two wild type C. albicans strains because they behaved similarly in YEPD. It is remarkable that there was no effect against either the C. albicans, the S. cerevisiae, or the S. pombe wild-type strains, except with 30E.

[7] = tested on: T1, S. cerevisiae wild-type CVX12-3A; design: species or system whole yeast cells; micro-culture broth dilution MIC in YES at 30 C, turbidity, complete growth inhibition; settings: Saccharomyces cerevisiae
Procedure: as §2

[8] = tested on: T2, S. pombe wild-type 972 h-; design: species or system whole yeast cells; micro-culture broth dilution MIC in YES at 30 C, turbidity, complete growth inhibition; settings: Schizosaccharomyces pombe
Procedure: as §2

[9] = tested on: Candida albicans C. a.^f (Tables 5, 6); design: species or system yeast; micro tube dilution MIC in YES (± 1.2 M sorbitol), complete growth inhibition by turbidity; settings: 48 h, YES + 1.2 M sorbitol
Procedure: as §2, with “experiments.” for “experiments. Next, the first generation of isochromanones (1E-16E) was also screened in YES medium (Table 5) and exerted a weaker antifungal potency than in YEPD medium and also than the second family of isochromanones in YES medium (17E-30E) (Table 6). The strains are partly different from the previously mentioned ones (Tables 5, 6) analyzing two wild type C. albicans strains because they behaved similarly in YEPD. It is remarkable that there was no effect against either the C. albicans, the S. cerevisiae, or the S. pombe wild-type strains, except with 30E.”

[10] = tested on: Candida albicans C. a.^g (Table 6); design: species or system yeast; micro tube dilution MIC in YES (± 1.2 M sorbitol), complete growth inhibition by turbidity; settings: 48 h, YES + 1.2 M sorbitol
Procedure: as §2, with “experiments.” for “experiments. Next, the first generation of isochromanones (1E-16E) was also screened in YES medium (Table 5) and exerted a weaker antifungal potency than in YEPD medium and also than the second family of isochromanones in YES medium (17E-30E) (Table 6). The strains are partly different from the previously mentioned ones (Tables 5, 6) analyzing two wild type C. albicans strains because they behaved similarly in YEPD. It is remarkable that there was no effect against either the C. albicans, the S. cerevisiae, or the S. pombe wild-type strains, except with 30E.”

[11] = tested on: T3, Saccharomyces cerevisiae S. c.^d (wild-type CVX12-3A); design: species or system yeast; micro tube dilution MIC in YES (± 1.2 M sorbitol), complete growth inhibition by turbidity; settings: 48 h, YES + 1.2 M sorbitol
T3 construct: CVX12-3A
Procedure: as §2, with “experiments.” for “experiments. Next, the first generation of isochromanones (1E-16E) was also screened in YES medium (Table 5) and exerted a weaker antifungal potency than in YEPD medium and also than the second family of isochromanones in YES medium (17E-30E) (Table 6). The strains are partly different from the previously mentioned ones (Tables 5, 6) analyzing two wild type C. albicans strains because they behaved similarly in YEPD. It is remarkable that there was no effect against either the C. albicans, the S. cerevisiae, or the S. pombe wild-type strains, except with 30E.”

[12] = tested on: T4, Schizosaccharomyces pombe S. p.^a (wild-type 972 h-); design: species or system yeast; micro tube dilution MIC in YES (± 1.2 M sorbitol), complete growth inhibition by turbidity; settings: 48 h, YES + 1.2 M sorbitol
T4 construct: 972 h-
Procedure: as §2, with “experiments.” for “experiments. Next, the first generation of isochromanones (1E-16E) was also screened in YES medium (Table 5) and exerted a weaker antifungal potency than in YEPD medium and also than the second family of isochromanones in YES medium (17E-30E) (Table 6). The strains are partly different from the previously mentioned ones (Tables 5, 6) analyzing two wild type C. albicans strains because they behaved similarly in YEPD. It is remarkable that there was no effect against either the C. albicans, the S. cerevisiae, or the S. pombe wild-type strains, except with 30E.”

[13] = YES medium, C. albicans strain f
[14] = YES medium, C. albicans strain g

Measured: MIC

O=C1OCc2ccccc2/C1=C\c1ccccc1Br [14E]
> 200 µg/mL: C. albicans wild-type [5] | C. albicans wild-type [6]; read-out: MIC | [7]; read-out: MIC | [8]; read-out: MIC
50 µg/mL: [3]
25 µg/mL: [2]
200 µg/mL: C. albicans wild-type [1] | C. albicans wild-type [4]

O=C1OCc2ccccc2/C1=C\c1cccc(O)c1 [16E]
200 µg/mL: C. albicans wild-type [1] | [2] | C. albicans wild-type [4]
50 µg/mL: C. albicans wild-type [5]
> 200 µg/mL: C. albicans wild-type [6]; read-out: MIC | [7]; read-out: MIC | [8]; read-out: MIC
100 µg/mL: [3]

O=C1OCc2ccccc2/C1=C/c1ccc([N+](=O)[O-])cc1 [17Z]
> 200 µg/mL: C. albicans wild-type [6]; [13] | C. albicans wild-type [6]; [14] | [7]; YES medium | [8]; YES medium | [9] | [10] | [11] | [12]

Cc1ccc(/C=C2/C(=O)OCc3ccccc32)cc1 [19E]
> 200 µg/mL: C. albicans wild-type [6]; [13] | C. albicans wild-type [6]; [14] | [7]; YES medium | [8]; YES medium | [9] | [10] | [11] | [12]

COc1ccc(/C=C2/C(=O)OCc3ccccc32)cc1 [21E]
> 200 µg/mL: C. albicans wild-type [6]; [13] | C. albicans wild-type [6]; [14] | [7]; YES medium | [8]; YES medium | [9] | [10] | [11] | [12]

O=C1OCc2ccccc2/C1=C\c1ccc2c(c1)OCO2 [27E]
> 200 µg/mL: C. albicans wild-type [6]; [13] | C. albicans wild-type [6]; [14] | [7]; YES medium | [8]; YES medium | [9] | [10] | [11] | [12]
